# From patent publication US20240342242A1, “COMPOSITIONS AND METHODS FOR TREATING MASTITIS” (Zoetis Services LLC, priority 2021, published 2024)
# Where “and” joins values, the source holds several entries; their conditions need not be identical. Equal values may be shown once. Entries after “also recorded” stand apart in the source; their conditions may differ.
# Experiments:
# [1] = test system: Escherichia coli; assay: E. coli intramammary challenge in lactating dairy cows, CATH2 and analogs, Example 2; assay type: in vivo, Holstein cows; details: for overall protection against mastitis following IMM challenge with E. coli / intramammary infection observed / animals meeting criteria for clinical mastitis: 50 mg/10 mL; for intramammary infection observed: 4 treatments prior to challenge, vehicle 100%; for animals meeting criteria for clinical mastitis: 4 treatments twice daily for 2 days prior to challenge, vehicle 100.0%, FIG. 9; for milk concentrations of BSA, milk haptoglobin, milk amyloid A, IL-1 beta, IL-6, IL-8, IL-10 and TNFα: FIGS. 13-20
# Source text: The objective of this study was to evaluate the efficacy of Cathelicidin-2 peptide analogs for reduction of incidence of clinical mastitis and severity of infection following Escherichia coli intramammary (IMM) infusion in lactating dairy cows. Healthy Holstein cows in their second or third lactation were selected based on culture negative results for mastitis pathogens and low somatic cell counts≤200,000. Enrolled animals were randomly assigned to treatment. Cows were commingled, housed and fed according to standard site procedures, and fitted with sensors to monitor activity. Cows were milked twice daily at regular intervals. The assigned treatment was administered following am and pm milkings starting 2 days prior to challenge. Four total treatments and the challenge were administered in the left front quarter. Treatment was administered twice daily for 2 days prior to challenge. The E. coli challenge material was administered to the treated quarter on the morning of Day 0 of study. The treatment regimen was designed to evaluate efficacy for prevention of the disease. All peptides were dosed at 50 mg/10 mL per dose. Milk samples were collected for analysis at 6-hour intervals on Day 0, and at each morning's milking from Day 1 through Day 7, and on Days 11 and 14.
# [2] = test system: primary bovine mammary epithelial cells (pMEC); assay: Cytokine production in primary bovine mammary epithelial cells, unstimulated or LPS/MPLA (TLR 4 agonist) stimulated; assay type: cell-based
# Source text: (§1) Chicken CATH2 is a host defense peptide that is naturally expressed in chicken heterophils and several tissues. […] LPS and MPLA serve as potent Toll-like Receptor 4 (TLR 4) agonists in this assay and induce high levels of proinflammatory cytokines such as interleukin 6 (IL-6) and tumor necrosis factor alpha (TNFα).
# [3] = test system: Escherichia coli; assay: Lactating cow E. coli mastitis challenge model, Example 1; assay type: in vivo, Holstein Crossbred Cattle
# Method: A frozen stock of E. coli was used to prepare a suspension of approximately 500 colony forming units/10 mL using standard site procedures. Standard plate counts were conducted on the challenge suspension immediately after preparation and after all animals were challenged. Details of the challenge inoculum preparation including concentration (CFU/10 mL) for the pre- and post-challenge preparation were documented and confirmed to be in range. Locally sourced healthy adult female Holstein Crossbred Cattle in the first, second, or third lactation were enrolled into the studies. Animals challenged with E. coli were susceptible to E. coli as determined by vaccination records and low serum titer to E. coli. Animals enrolled were confirmed to be between 14 and 35 days post-calving at enrollment. […] Following challenge quarters bacteriologically positive for E. coli were regarded as infected. Clinical mastitis was defined as a challenged quarter having a clinical score of at least 1 for either milk appearance or udder evaluation and an isolation of E. coli from the challenged quarter. Subclinical mastitis was defined as isolation of E. coli from the challenged quarter and elevated SSC in the absence of abnormal milk or udder score. This isolate elicits a moderate case of E. coli mastitis with body temperature increase in the first 24 hours post challenge and consistent local signs on udder appearance and milk quality.
# In this study, animals were treated with 50 mg/10 mL at 12-hour intervals starting 12 hours prior to E. coli challenge. A total of 4 doses were administered by intramammary infusion. Dose administration concluded 24 hours after challenge. The objective of the study was to evaluate the potential for CATH2 to reduce the severity of clinical mastitis by modulation of the host immune response. The dose regimen was designed to ensure sufficient exposure in the absence of understanding the duration of the immunological effect driven by the peptide in cattle.
# The experimental design was a randomized design with a one-way treatment structure replicated in 3 batches. […] Milk samples were collected for transcriptomic analysis and cytokine profiles in the whey at 12 hours post-challenge. Differential quantitative milk leukocyte counts were collected for 7 days post challenge.
# One hundred fifty bovine milk samples were obtained in 3 separate cohorts and processed to whey. The whey samples were analyzed for total protein levels and the levels of 8 total cytokines using the developed MSD whey U-Plex method.
# [4] = test system: bacteria; assay: Modified minimal bactericidal concentration assay in varying concentrations of milk; assay type: cell-based; details: as little as 10% whole and skim milk
# Source text: The CATH2 peptide has antibacterial activity where it causes membrane disruption and lysis of the bacterial cell. The peptide also has cytotoxic effects on eukaryotic cells at high concentrations due the high positive charge, +8, and its ability to integrate in the cell membrane, resulting in membrane disruption. To further understand the behavior of the peptide in the context of the mammary gland, the inventors investigated the antibacterial activity and cytotoxicity of the peptide in the presence of milk. […] This finding led the inventors to investigate the impact of milk protein binding on peptide activity.
# [5] = Dry off therapy: transcriptomics of udder secretions in healthy dry cows, Example 5; assay type: in vivo, Holstein cattle; details: 400 mg/10 mL, 1-day post administration
# Method: In an additional study, pregnant multiparous Holstein cattle were treated with a single dose of CATH2 at approximately 60 days prior to expected calving dates for this group of animals by intramammary infusion following milking. These animals were considered to be entering the so-called dry period in which animals are no longer milked until post-partition. The objective of this study was to understand the immunomodulatory activity of varying doses of CATH2 administered by intramammary infusion in healthy multiparous cows at dry off.
# Udder secretion samples were collected 1, 2, and 7 days post administration. Samples were also collected from the neighboring Right Rear quarter as an untreated in animal control of varying immunological responses. The samples were processed for transcriptomics analysis to determine the healthy animal response to treatment alone.
# [6] = test system: S. aureus; assay: S. aureus challenge study, treatment at onset of clinical mastitis, Example 3; assay type: in vivo, Holstein or Holstein Crossbred cattle; details: 6 doses at 50 mg/10 mL intramammary
# Method: Bovine mastitis specific bacterial pathogens were used to experimentally infect periparturient cows and first lactation heifer Holstein or Holstein Crossbred cattle to test the efficacy of the CATH2 peptide in the treatment and prevention of clinical mastitis.
# A frozen stock of S. aureus was used to prepare a suspension of approximately 600 colony forming units in 5 mL. Standard plate counts were conducted on the challenge suspension immediately after preparation and after all animals were challenged. Details of each challenge inoculum preparation including concentration (CFU/5 mL) for pre- and post-challenge preparation were documented and confirmed to be in range.
# Quarters that were bacteriologically positive for S. aureus were regarded as infected. Clinical mastitis was defined as a challenged quarter having a clinical score of at least 1 for either milk appearance or udder evaluation with an isolation of S. aureus (≥100 cfu/mL) from the quarter within 2 days of clinical signs. Sub-clinical chronic mastitis was defined as isolation of S. aureus (≥100 cfu/mL) from a challenged quarter and elevated SCC (>200,000 cells/mL) in the absence of abnormal milk or udder score.
# All treatments were administered in accordance with the randomization provided by the biometrician into the challenged quarter (left front) of the udder. Treatments were administered upon onset of clinical mastitis. In this model, onset is approximately 1 to 3 days post-challenge. Upon confirmation of clinical mastitis, treatments were administered at the next milking. Treatments were administered with a 10 mL syringe via intramammary infusion and recorded.
# Each animal with clinical mastitis received a total of 6 doses at 50 mg/10 mL by intramammary infusion administered twice daily for 3 consecutive days.
# [7] = test system: E. coli challenge strain; assay: Antibacterial activity of 2 mg peptide in varying milk concentrations, 2-minute pre-incubation; assay type: cell-based
# Method: In a follow up assay to better understand the impact of milk protein binding on antibacterial activity that may be seen in vivo, a ratio of peptide to milk protein was estimated. In this assay varying concentrations of milk in bacterial growth medium was incubated with 2 mg of peptide. Two minutes after adding peptide to the tube, 500 colony forming units (CFU)/mL of the E. coli challenge strain was added. The timing was purposeful for understanding how quickly the peptide can be completely bound. The low inoculum was also chosen intentionally to more closely replicate the dose provided in the in vivo challenge model, thereby providing a worst-case scenario on exposure to free peptide. […] The quantity of milk protein was enough to bind 2 mg of CATH2 peptide. The bacterial growth was evaluated at 1, 2, 4, 6, and 24 hours post inoculation. […] The lower level of detection was 10 CFU/mL and the upper level of quantification measured for the purposes of this assay was set to 1.5×10^5 CFU/mL.
# [8] = test system: Streptococcus uberis; assay: S. uberis challenge study, Example 4; assay type: in vivo, cattle
# [9] = Transcriptomics after treatment alone in the lactating cow model; assay type: in vivo; details: 100 mg/10 mL, 12 hour post administration, lactating cows
# Source text: Prior to challenge in the lactating cow model, there is a consistent treatment effect of CATH2 alone indicating a modulation of the animal immune response. In the lactating cow model, these shifts lead to an enhanced response in clearance of the E. coli and resolution of inflammation as compared to untreated controls.
# [10] = test system: bovine peripheral blood mononuclear cells (PBMCs); assay: Cytokine production in bovine PBMCs after TLR 4 agonist stimulation; assay type: cell-based; details: LPS or MPLA stimulation
# Source text: as §1
sequence,measurement,setting,value
"RCGRFLRKIRPFRRKVTITCQ [Analog 2, CATH2 1-21 analog]",overall protection against mastitis following IMM challenge with E. coli,[1],Relatively limited protection against mastitis
same,intramammary infection observed,[1],94.74%
same,animals meeting criteria for clinical mastitis,[1],95.74%
same,"milk concentrations of BSA, milk haptoglobin, milk amyloid A, IL-1 beta, IL-6, IL-8, IL-10 and TNFα",[1],modulation on acute phase proteins and key cytokines
"RFGRFLRKIRRFRPKVTITIQ [CATH2, truncated 1-21 amino acid L-form of chicken cathelicidin 2 peptide]","proinflammatory cytokines (IL-6, TNFα) upon LPS or MPLA stimulation","[2]; LPS or MPLA (TLR 4 agonist) stimulation, FIG. 1",dose-dependent inhibition of proinflammatory cytokines
same,proinflammatory cytokines in healthy unstimulated bovine mammary epithelial cells,"[2]; varying concentrations of the peptide, unstimulated",minor increase in proinflammatory cytokines
same,animals showing signs of clinical mastitis,"[3]; 50 mg/10 mL intramammary, 4 doses at -12, 0, 12, 24 h, saline 95.65%",8.70%
same,animals never positive for intramammary infection,"[3]; 50 mg/10 mL intramammary, 4 doses, 20 of 23 animals",86.96% and 87.0%
same,animals that never met criteria for clinical mastitis,"[3]; 50 mg/10 mL intramammary, 4 doses, 21 out of 23 animals",91.3%
same,animals qualifying for subclinical mastitis,"[3]; 14-day study, saline 20 of 23",None
same,somatic cell count (SCC),"[3]; 6 hours post challenge, FIG. 6",notable increase in the SCC
same,"milk whey cytokines (IL-1B, IL-6, IL-8/CXCL8, IL-10, TNFα)","[3]; 12 hr post-challenge, vs saline",significantly lower levels of key inflammatory cytokines; also recorded: reduction in peak cytokine responses
same,milk yield,"[3]; AfiLab in-line system, each milking, FIG. 7",maintained high milk yields
same,BSA levels in the milk vs Saline control,"[3]; all time points after Day 0 at 6 hours post-challenge, FIG. 8",statistically significantly reduced BSA levels
same,time of SCC return to baseline,"[3]; bovine, in vivo",≤ 24 hours post challenge
same,bacterial load in the milk,"[3]; first 6 days, FIG. 4",significant inhibition of E. coli ability to establish infection
same,BSA return to baseline levels,[3]; milk from challenged quarter,≤ 3 Study Day
same,animals not showing an increase in body temperature,"[3]; rectal temperature, 22 of 23 animals",95.7%
same,peptide antibacterial activity in the presence of milk,[4],completely inhibited
same,gene expression in udder secretions,[5],"increased expression of: CCL24, CXCL2, IL1RAP, CXCR1, and CXCR2"
same,animals showing a positive response to treatment,[6],55.6%
same,severity of disease,[6],reduction in bacterial counts and reduced somatic cell counts
same,animals achieving clinical cure,[6]; twice daily for 3 days,33.3%
same,antibacterial activity in 10% and 20% milk,[7],some inhibition of bacterial growth
same,antibacterial activity in 30% whole milk,"[7]; 2-minute incubation, 500 CFU/mL E. coli",completely block the antibacterial activity
same,antibacterial activity in bacterial medium alone,"[7]; E. coli below level of detection (10 CFU/mL) at 1, 2, 4, 6, 24 h",completely bactericidal
same,animals meeting criteria for removal from study (Kaplan Meier analysis),"[8]; 50 mg/10 mL, 2 doses prior to challenge or 4 doses spanning challenge, FIG. 21",reduction in the number of animals meeting criteria for removal of study
same,incidence of clinical mastitis,"[8]; 50 mg/10 mL, both regimens, FIG. 22",reduced incidence of clinical mastitis
same,"progression of clinical mastitis, 4 dose regimen vs 2 dose regimen","[8]; 4 doses at -12, 0, 12, 24 hours",greater capacity to inhibit the progression of clinical mastitis
same,overall protection against mastitis following IMM challenge with E. coli,[1],best protection against mastitis
same,intramammary infection observed,[1],52.94%
same,animals meeting criteria for clinical mastitis,[1],47.06%
same,cows with normal challenged quarter,"[1]; Day 6, vehicle 0%",41.48%
same,"milk concentrations of BSA, milk haptoglobin, milk amyloid A, IL-1 beta, IL-6, IL-8, IL-10 and TNFα",[1],lowest
same,cows demonstrating fever,"[1]; vehicle 80.0%, FIG. 12",41.2%
same,duration of fever,[1]; vehicle 5.5 h,2.4 h
same,peak E. coli counts from the challenged quarter,[1]; vehicle >4.0,< 1.5 log10 CFU/mL
same,bacterial load post challenge,"[1]; vs vehicle control, FIG. 10",greatest reduction in the bacterial load
same,BSA level in the milk,"[1]; vs vehicle control, FIG. 13",lowest level of BSA in the milk
same,gene expression in milk,[9],"increased expression of: CCL24, CXCL2, IL1RAP, CXCR1, and CXCR2"
same,"proinflammatory cytokines (IL-6, TNFα) in PBMCs",[10],effectively inhibits these proinflammatory cytokines
"RFGRWLRKIRRYRGKVTITIQ [Analog 1, CATH2 1-21 analog]",overall protection against mastitis following IMM challenge with E. coli,[1],Relatively limited protection against mastitis
same,intramammary infection observed,[1],94.74%
same,animals meeting criteria for clinical mastitis,[1],78.95%
same,"milk concentrations of BSA, milk haptoglobin, milk amyloid A, IL-1 beta, IL-6, IL-8, IL-10 and TNFα",[1],modulation on acute phase proteins and key cytokines
